Counter-ions that a name gives are not always drawn.
What follows are molecules tested on Acinetobacter baumannii ATCC 17961 (assay: Antimicrobial susceptibility testing: 90% growth inhibitory concentration (IC90) determination). Conditions: ATCC17961, Acinetobacter baumannii ATCC 17961, Iso-Sensitest broth, read-out: ATCC 17961 IC90.
Format: cell-based
Procedure, shortened: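 Broth microdilution in Iso-Sensitest medium, twofold series (e.g. 50 to 0.097 μM final), ~5×10^5 CFU/ml inoculum, 35±2 °C. OD600 read every 20 min over 16 h. IC90 derived from growth inhibition during logarithmic phase.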

Structure (SMILES) | IC90
Cn1c(-c2cn(C3CC3(F)F)nc2C(F)(F)F)cnc1C(=O)Nc1ccc(C(=O)NC2(C)CCNCC2)c(Cl)c1 (centres unmarked) [Example 344, N-(3-chloro-4-((4-methylpiperidin-4-yl)carbamoyl)phenyl)-5-(1-(2,2-difluorocyclopropyl)-3-(trifluoromethyl)-1H-pyrazol-4-yl)-1-methyl-1H-imidazole-2-carboxamide formate] | 0.443 µM
Cn1c(-c2cn(CC#N)nc2C(F)(F)F)cnc1C(=O)Nc1ccc(C(=O)NCCCCN)c(Cl)c1 [Example 345, N-(4-((4-aminobutyl)carbamoyl)-3-chlorophenyl)-5-(1-(cyanomethyl)-3-(trifluoromethyl)-1H-pyrazol-4-yl)-1-methyl-1H-imidazole-2-carboxamide tris(2,2,2-trifluoroacetate)] | 0.444 µM
Cn1c(-c2cn(CC#N)nc2C(F)(F)F)cnc1C(=O)Nc1ccc(C(=O)N[C@H]2CC[C@@H](N)CC2)c(Cl)c1 [Example 351, N-[4-[(4-aminocyclohexyl)carbamoyl]-3-chlorophenyl]-5-[1-(cyanomethyl)-3-(trifluoromethyl)pyrazol-4-yl]-1-methylimidazole-2-carboxamide;2,2,2-trifluoroacetic acid] | 0.453 µM
Cn1c(-c2cn(CCC3CC3)nc2C(F)(F)F)cnc1C(=O)Nc1ccc(C(=O)N2CCN(C(=O)C3CCNCC3)CC2)c(Cl)c1 [Example 352, N-(3-chloro-4-(4-(piperidine-4-carbonyl)piperazine-1-carbonyl)phenyl)-5-(1-(2-cyclopropylethyl)-3-(trifluoromethyl)-1H-pyrazol-4-yl)-1-methyl-1H-imidazole-2-carboxamide hydrochloride] | 0.458 µM
CC1CN(C(=O)N[C@H]2C[C@@H](NC(=O)c3ccc(NC(=O)c4ncc(-c5cn(CC#N)nc5C(F)(F)F)n4C)cc3Cl)C2)CCN1 (some centres unmarked) [Example 354, N-[3-[[2-chloro-4-[[5-[1-(cyanomethyl)-3-(trifluoromethyl)pyrazol-4-yl]-1-methyl-imidazole-2-carbonyl]amino]benzoyl]amino]cyclobutyl]-3-methyl-piperazine-1-carboxamide; formic acid] | 0.463 µM
Cn1c(-c2cn(CC#N)nc2C(F)(F)F)cnc1C(=O)Nc1ccc(C(=O)N2CCN(C(=O)[C@H]3C[C@H](N)C3)CC2)c(Cl)c1 [Example 355, N-[4-[4-(3-aminocyclobutanecarbonyl)piper-azine-1-carbonyl]-3-chlorophenyl]-5-[1-(cyanomethyl)-3-(trifluoromethyl)pyrazol-4-yl]-1-methylimidazole-2-carboxamide;trihydrochloride] | 0.464 µM
CCn1cc(-c2cnc(C(=O)Nc3ccc(C(=O)N4CCC(CCC(C)(C)N(C)C)CC4)c(Cl)c3)n2C)c(C(F)(F)F)n1 [Example 360, N-(3-chloro-4-(4-(3-(dimethylamino)-3-methylbutyl)piperidine-1-carbonyl)phenyl)-5-(1-ethyl-3-(trifluoromethyl)-1H-pyrazol-4-yl)-1-methyl-1H-imidazole-2-carboxamide] | 0.474 µM
Cn1c(-c2cn(CC(F)F)nc2C(F)(F)F)cnc1C(=O)Nc1ccc(C(=O)N2CCC23CN(C(=O)C2CCNCC2)C3)c(Cl)c1 [Example 363, N-(3-chloro-4-(6-(piperidine-4-carbonyl)-1,6-diazaspiro[3.3]heptane-1-carbonyl)phenyl)-5-(1-(2,2-difluoroethyl)-3-(trifluoromethyl)-1H-pyrazol-4-yl)-1-methyl-1H-imidazole-2-carboxamide formate] | 0.481 µM
Cn1c(-c2cn(CC(F)F)nc2C(F)F)cnc1C(=O)Nc1ccc(C(=O)N2CCN(C(=O)[C@H]3[C@@H]4CNC[C@@H]43)CC2)c(Cl)c1 [Example 364, N-(4-(4-((1R,5S,6r)-3-azabicyclo[3.1.0]hexane-6-carbonyl)piperazine-1-carbonyl)-3-chlorophenyl)-5-(1-(2,2-difluoroethyl)-3-(difluoromethyl)-1H-pyrazol-4-yl)-1-methyl-1H-imidazole-2-carboxamide formate] | 0.482 µM
CNC1CCN(C(=O)c2ccc(NC(=O)c3ncc(-c4cn(C5CC5)nc4C(F)(F)F)n3C)cc2Cl)CC1 [Example 366, N-(3-chloro-4-(4-(methylamino)piperidine-1-carbonyl)phenyl)-5-(1-cyclopropyl-3-(trifluoromethyl)-1H-pyrazol-4-yl)-1-methyl-1H-imidazole-2-carboxamide formate] | 0.483 µM
Cn1c(-c2cn(C3CC3)nc2C(F)(F)F)cnc1C(=O)Nc1ccc(C(=O)N2CCN(C(=O)[C@@H]3C[C@H](F)CN3)CC2)c(Cl)c1 [Example 367, N-(3-chloro-4-(4-((2S,4S)-4-fluoropyrrolidine-2-carbonyl)piperazine-1-carbonyl)phenyl)-5-(1-cyclopropyl-3-(trifluoromethyl)-1H-pyrazol-4-yl)-1-methyl-1H-imidazole-2-carboxamide hydrochloride] | 0.484 µM
CN(C(=O)c1ccc(NC(=O)c2ncc(-c3cn(C4CC4(F)F)nc3C(F)(F)F)n2C)cc1Cl)C1CCNCC1 (centres unmarked) [Example 368, N-(3-chloro-4-(methyl(piperidin-4-yl)carbamoyl)phenyl)-5-(1-(2,2-difluorocyclopropyl)-3-(trifluoromethyl)-1H-pyrazol-4-yl)-1-methyl-1H-imidazole-2-carboxamide formate] | 0.484 µM
Cn1c(-c2cn(CC3CC3)nc2C(F)(F)F)cnc1C(=O)Nc1ccc(C(=O)N2CCN(C(=O)N[C@@H]3CC[C@@H](N)C3)CC2)c(Cl)c1 [Example 369, N-((1R,3R)-3-aminocyclopentyl)-4-(2-chloro-4-(5-(1-(cyclopropylmethyl)-3-(trifluoromethyl)-1H-pyrazol-4-yl)-1-methyl-1H-imidazole-2-carboxamido)benzoyl)piperazine-1-carboxamide] | 0.485 µM
Cn1c(-c2cn(C3CC3)nc2C(F)(F)F)cnc1C(=O)Nc1ccc(C(=O)N2CCC(N3CCC(O)CC3)CC2)c(Cl)c1 [Example 370] | 0.485 µM

Next, values leading:

IC90 | Structure (SMILES)
0.447 µM | Cn1c(-c2cn(C3CC3)nc2C(F)(F)F)cnc1C(=O)Nc1ccc(C(=O)N2CCN(C(=O)[C@H]3CCN3)CC2)c(Cl)c1 [Example 348, (R)-N-(4-(4-(azetidine-2-carbonyl)piperazine-1-carbonyl)-3-chlorophenyl)-5-(1-cyclopropyl-3-(trifluoromethyl)-1H-pyrazol-4-yl)-1-methyl-1H-imidazole-2-carboxamide hydrochloride]
0.449 µM | Cn1c(-c2cn(C3CC3)nc2C(F)(F)F)cnc1C(=O)Nc1ccc(C(=O)N2CCN(C(=O)N3CC[C@@H](N)C3)CC2)c(Cl)c1 [Example 349, (R)-N-(4-(4-(3-aminopyrrolidine-1-carbonyl)piperazine-1-carbonyl)-3-chlorophenyl)-5-(1-cyclopropyl-3-(trifluoromethyl)-1H-pyrazol-4-yl)-1-methyl-1H-imidazole-2-carboxamide formate]
0.462 µM | Cc1cc(NC(=O)c2ncc(-c3cn(CC(F)F)nc3C(F)(F)F)n2C)ccc1S(C)(=O)=NCCCN (centres unmarked) [Example 353, N-[4-[N-(3-aminopropyl)-S-methyl-sulfonimidoyl]-3-methyl-phenyl]-5-[1-(2,2-difluoroethyl)-3-(trifluoromethyl)pyrazol-4-yl]-1-methyl-imidazole-2-carboxamide; formic acid]
0.466 µM | CCc1cc(NC(=O)c2ncc(-c3cn(CC(F)F)nc3C(F)(F)F)n2C)ccc1C(=O)NCCCCCN [Example 356, N-(4-((5-aminopentyl)carbamoyl)-3-ethylphenyl)-5-(1-(2,2-difluoroethyl)-3-(trifluoromethyl)-1H-pyrazol-4-yl)-1-methyl-1H-imidazole-2-carboxamide hydrochloride]
0.466 µM | CN(C)CCN(C)C1CCN(C(=O)c2ccc(NC(=O)c3ncc(-c4cn(C5CC5)nc4C(F)(F)F)n3C)cc2Cl)CC1 [Example 357, N-(3-chloro-4-(4-((2-(dimethylamino)ethyl)(methyl)amino)piperidine-1-carbonyl)phenyl)-5-(1-cyclopropyl-3-(trifluoromethyl)-1H-pyrazol-4-yl)-1-methyl-1H-imidazole-2-carboxamide]
0.467 µM | Cn1c(-c2cn(CC#N)nc2C(F)(F)F)cnc1C(=O)Nc1ccc(C(=O)N[C@H]2C[C@@H](NC(=O)N3CCC(CN)C3)C2)c(Cl)c1 (some centres unmarked) [Example 359, N-[4-[[3-[[3-(aminomethyl)pyrrolidine-1-carbonyl]amino]cyclobutyl]car-bamoyl]-3-chloro-phenyl]-5-[1-(cyanomethyl)-3-(trifluoromethyl)pyrazol-4-yl]-1-methyl-imidazole-2-carboxamide; formic acid]
0.479 µM | Cn1c(-c2cn(CC#N)nc2C(F)(F)F)cnc1C(=O)Nc1ccc(C(=O)N[C@H]2C[C@@H](NC(=O)N3CCCC3CN)C2)c(Cl)c1 (some centres unmarked) [Example 361, N-[4-[[3-[[2-(aminomethyl)pyrrolidine-1-carbonyl]amino]cyclobutyl]car-bamoyl]-3-chloro-phenyl]-5-[1-(cyanomethyl)-3-(trifluoromethyl)pyrazol-4-yl]-1-methyl-imidazole-2-carboxamide; formic acid]
0.48 µM | Cn1c(-c2cn(C3CC3)nc2C(F)(F)F)cnc1C(=O)Nc1ccc(C(=O)N2CCN(C(=O)N3CCC(N)CC3)CC2)c(Cl)c1 [Example 362, N-(4-(4-(4-aminopiperidine-1-carbonyl)piperazine-1-carbonyl)-3-chlorophenyl)-5-(1-cyclopropyl-3-(trifluoromethyl)-1H-pyrazol-4-yl)-1-methyl-1H-imidazole-2-carboxamide formate]
0.485 µM | Cn1c(-c2cn(CC3CCC3)nc2C(F)(F)F)cnc1C(=O)Nc1ccc(C(=O)N2CCNCC2)c(Cl)c1 [Example 371, N-(3-chloro-4-(piperazine-1-carbonyl)phenyl)-5-(1-(cyclobutylmethyl)-3-(trifluoromethyl)-1H-pyrazol-4-yl)-1-methyl-1H-imidazole-2-carboxamide dihydrochloride]
